Data as given in patent publication US20230104936A1, “TRPML MODULATORS” (Casma Therapeutics, Inc., priority 2019, published 2023).

Tested on: TFEB
Assay: TFEB nuclear translocation assay, HeLa wt cells
Format: cell-based
Conditions: Homo sapiens, HeLa, 2 h, 2 hrs compound treatment, Table 1 does not say HeLa wt or TRPML1 KO
In short: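 TFEB translocation into the nucleus of HeLa wt cells is scored by high-content immunofluorescence after 2 hrs of compound treatment at 37° C, reported as AC50.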

## C=CP(=O)(C=C)c1ccccc1NS(=O)(=O)c1ccc(S(=O)(=O)N(C)C)cc1 [Compound A-227, N1-(2-(divinylphosphoryl)phenyl)-N4,N4-dimethylbenzene-1,4-disulfonamide]
  AC50: ≥ 10 µM

## COCC1(C)CCN(c2ccccc2NC(c2ccc(S(=O)(=O)N(C)C)cc2)C(F)(F)F)CC1 (stereo not shown) [Compound A-684, N,N-dimethyl-4-(2,2,2-trifluoro-1-((2-(4-(methoxymethyl)-4-methylpiperidin-1-yl)phenyl)amino)ethyl)benzenesulfonamide]
  AC50: 2.01 to 8 µM

## CC(C)(C)C(=O)N1CCN(c2ccccc2NS(=O)(=O)c2ccc(C(C)(C)C)cc2)CC1 [Compound A-516, 4-tert-butyl-N-{2-[4-(2,2-dimethylpropanoyl)piperazin-1-yl]phenyl}benzene-1-sulfonamide]
  AC50: 2.01 to 8 µM

## COCCC1CCN(c2ccccc2NS(=O)(=O)c2ccc(S(=O)(=O)N(C)C)cc2)CC1 [Compound A-611, N4-{2-[4-(2-methoxyethyl)piperidin-1-yl]phenyl}-N1,N1-dimethylbenzene-1,4-disulfonamide]
  AC50: ≤ 2 µM

## CN1CCN(c2ccccc2NS(=O)(=O)c2ccc(S(=O)(=O)N(C)C)cc2)CC1 [Compound A-54, N1,N1-dimethyl-N4-[2-(4-methylpiperazin-1-yl)phenyl]benzene-1,4-disulfonamide]
  AC50: ≥ 10 µM

## CN(C)S(=O)(=O)c1ccc(S(=O)(=O)Nc2cncc(F)c2N2CCCCC2)cc1 [Compound A-856, N1-(5-fluoro-4-(piperidin-1-yl)pyridin-3-yl)-N^4,N^4-dimethylbenzene-1,4-disulfonamide]
  AC50: ≥ 10 µM

## CS(=O)(=O)c1ccc(S(=O)(=O)Nc2cccc(Cl)c2N2CCOCC2)cc1 [Compound A-275, N-[3-chloro-2-(morpholin-4-yl)phenyl]-4-methanesulfonylbenzene-1-sulfonamide]
  AC50: ≥ 10 µM

## O=S(=O)(Nc1cc(Cl)ccc1N1CCCC12CCOC2)c1ccc2c(c1)CCC2 (stereo not shown) [Compound A-346, N-(5-chloro-2-{7-oxa-1-azaspiro[4.4]nonan-1-yl}phenyl)-2,3-dihydro-1H-indene-5-sulfonamide]
  AC50: ≤ 2 µM

## CN(C)S(=O)(=O)c1ccc(S(=O)(=O)Nc2cccc(F)c2N2CCC(CN3CC4CC(C3)O4)CC2)cc1 [Compound A-791, N4-{3-fluoro-2-[4-({6-oxa-3-azabicyclo[3.1.1]heptan-3-yl}methyl)piperidin-1-yl]phenyl}-N1,N1-dimethylbenzene-1,4-disulfonamide]
  AC50: ≥ 10 µM

## CC(C)(C)C(=O)N1CCN(c2ccccc2NS(=O)(=O)Cc2ccccc2)CC1 [Compound A-410, N-{2-[4-(2,2-dimethylpropanoyl)piperazin-1-yl]phenyl}-1-phenylmethanesulfonamide]
  AC50: 2.01 to 8 µM

## CN(C)S(=O)(=O)c1ccc(S(=O)(=O)Nc2ccccc2N2CCOCC2)cc1 [Compound A-770, N1,N1-dimethyl-N4-[2-(morpholin-4-yl)phenyl]benzene-1,4-disulfonamide]
  AC50: ≥ 10 µM

## CN(C)S(=O)(=O)c1ccc(S(=O)(=O)Nc2ccccc2N2CCC3(CCCCO3)CC2)cc1 [Compound A-562, N1,N1-dimethyl-N4-(2-{1-oxa-9-azaspiro[5.5]undecan-9-yl}phenyl)benzene-1,4-disulfonamide]
  AC50: ≤ 2 µM

## CN(C)S(=O)(=O)c1ccc(S(=O)(=O)Nc2ccccc2N2CCC3(COC(C)(C)C3)CC2=O)cc1 (stereo not shown) [Compound A-735, N4-(2-{3,3-dimethyl-7-oxo-2-oxa-8-azaspiro[4.5]decan-8-yl}phenyl)-N1,N1-dimethylbenzene-1,4-disulfonamide]
  AC50: ≥ 10 µM

## O=S(=O)(Nc1cc(Cl)ccc1N1CC2(CCC2)C1C1CCCO1)c1ccc2c(c1)CCC2 (stereo not shown) [Compound A-397, N-{5-chloro-2-[1-(oxolan-2-yl)-2-azaspiro[3.3]heptan-2-yl]phenyl}-2,3-dihydro-1H-indene-5-sulfonamide]
  AC50: 2.01 to 8 µM

## O=S(=O)(Cc1ccon1)Nc1cccc(Cl)c1N1CCOCC1 [Compound A-365, N-[3-chloro-2-(morpholin-4-yl)phenyl]-1-(1,2-oxazol-3-yl)methanesulfonamide]
  AC50: ≥ 10 µM

## C[C@@H]1CN(CC2CCN(c3c(F)cccc3NS(=O)(=O)c3ccc(S(=O)(=O)N(C)C)cc3)CC2)C[C@@H](C)O1 [Compound A-818, N4-[2-(4-{[(2R,6R)-2,6-dimethylmorpholin-4-yl]methyl}piperidin-1-yl)-3-fluorophenyl]-N1,N1-dimethylbenzene-1,4-disulfonamide]
  AC50: ≤ 2 µM

## O=S(=O)(Nc1ccccc1N1CCC(c2ccc(Cl)cc2F)CC1)c1ccccc1Cl [Compound A-76, 2-chloro-N-{2-[4-(4-chloro-2-fluorophenyl)piperidin-1-yl]phenyl}benzene-1-sulfonamide]
  AC50: ≥ 10 µM

## CN(C)S(=O)(=O)c1ccc(S(=O)(=O)Nc2cccnc2N2CCC(c3ccc(Cl)cc3F)CC2)cc1 [Compound A-109, N4-{2-[4-(4-chloro-2-fluorophenyl)piperidin-1-yl]pyridin-3-yl}-N1,N1-dimethylbenzene-1,4-disulfonamide]
  AC50: ≤ 2 µM

## COCCOCCOCCN(C)S(=O)(=O)c1ccc(S(=O)(=O)Nc2ccccc2N2CCC(c3ccc(Cl)cc3F)CC2)cc1 [Compound A-587, N4-{2-[4-(4-chloro-2-fluorophenyl)piperidin-1-yl]phenyl}-N1-{2-[2-(2-methoxyethoxy)ethoxy]ethyl}-N1-methylbenzene-1,4-disulfonamide]
  AC50: 2.01 to 8 µM

## C[C@@H]1CN(C(=O)C2CCN(c3ccccc3NS(=O)(=O)c3ccc(S(=O)(=O)N(C)C)cc3)CC2)C[C@H](C)O1 [Compound A-754, N4-(2-{4-[(2R,6S)-2,6-dimethylmorpholine-4-carbonyl]piperidin-1-yl}phenyl)-N1,N1-dimethylbenzene-1,4-disulfonamide]
  AC50: 2.01 to 8 µM

## C[C@@H]1CN(CC2(C)CCN(c3c(F)cccc3NS(=O)(=O)c3ccc(S(=O)(=O)N(C)C)cc3)CC2)C[C@H](C)O1 [Compound A-781, N4-[2-(4-{[(2R,6S)-2,6-dimethylmorpholin-4-yl]methyl}-4-methylpiperidin-1-yl)-3-fluorophenyl]-N1,N1-dimethylbenzene-1,4-disulfonamide]
  AC50: ≤ 2 µM

## CN(C)S(=O)(=O)c1ccc(NS(=O)(=O)c2ccccc2N2CCC(c3ccc(Cl)cc3F)CC2)cc1 [Compound A-108, 4-((2-(4-(4-chloro-2-fluorophenyl)piperidin-1-yl)phenyl)sulfonamido)-N,N-dimethylbenzenesulfonamide]
  AC50: ≤ 2 µM

## CC1(C)CC2(CCN(c3ccccc3NS(=O)(=O)c3ccc(C(F)F)cc3)CC2)CO1 [Compound A-671, 4-(difluoromethyl)-N-(2-{3,3-dimethyl-2-oxa-8-azaspiro[4.5]decan-8-yl}phenyl)benzene-1-sulfonamide]
  AC50: ≤ 2 µM

## CN(C)S(=O)(=O)c1ccc(S(=O)(=O)Nc2ccccc2N2CCN(C(=O)C3(C)CCC3)CC2)cc1 [Compound A-425, N1,N1-dimethyl-N4-{2-[4-(1-methylcyclobutanecarbonyl)piperazin-1-yl]phenyl}benzene-1,4-disulfonamide]
  AC50: 2.01 to 8 µM

## O=S(=O)(Nc1ccccc1N1CCC(c2ccc(Cl)cc2F)CC1)c1ccc(F)cc1F [Compound A-87, N-{2-[4-(4-chloro-2-fluorophenyl)piperidin-1-yl]phenyl}-2,4-difluorobenzene-1-sulfonamide]
  AC50: ≥ 10 µM
